Test results published in patent US9499553B2 (CHUGAI SEIYAKU KABUSHIKI KAISHA, priority 2013, dated 2016).

Experiments:
[1] = tested on: chronic kidney disease model rat; assay: Suppressive effect on rise in serum creatinine concentration of chronic kidney disease model rat; format: in vivo; settings: dosage 0.3% in feed, 14 weeks
From the text: Test Example 7: Suppressive Effect on Rise in Serum Creatinine Concentration of Chronic Kidney Disease Model Rat
A group given feed non-supplemented with the test compound was used as a reference pathological group, and a group neither subjected to the kidney removal nor antibody administration and given feed non-supplemented with the test compound was used as a normal group. Fourteen weeks after the start of administration of the test compound, blood was collected from the abdominal aorta and serum was collected. As an indicator of renal damage, serum creatinine concentrations were measured by an enzyme assay (creatinase-sarcosine oxidase-POD method). The rate of suppression of a rise in serum creatinine concentration was determined according to the following expression: Rate (%) of suppression of a rise in serum creatinine concentration=(1−[(Serum creatinine concentration of the test compound-treated pathological group)−(Serum creatinine concentration of the normal group)]/[(Serum creatinine concentration of the reference pathological group)−(Serum creatinine concentration of the normal group)])×100

[2] = tested on: chronic kidney disease model rat; assay: Suppressive effect on calcium deposition in blood vessel of chronic kidney disease model rat; format: in vivo; settings: thoracic aorta, dosage 0.3% in feed, 14 weeks
Procedure: Test Example 9: Suppressive Effect on Calcium Deposition in Blood Vessel of Chronic Kidney Disease Model Rat
From the same animal as that in Test Example 7, the thoracic aorta was collected 14 weeks after the start of administration of the test compound, and the dry weight was measured. The measured dry thoracic aorta was subjected to ashing and dissolved in a certain amount of hydrochloric acid, and then the calcium concentration in the solution was measured using OCPC method to determine the amount of calcium per gram of the thoracic aorta dry weight (Katsumata K, Kusano K, Hirata M, Tsunemi K, Nagano N, Burke S K, Fukushima N. Sevelamer hydrochloride prevents ectopic calcification and renal osteodystrophy in chronic renal failure rats. Kidney Int. 2003 August; 64(2): 441-450.) The rate of suppression of calcium deposition in blood vessel was determined according to the following expression: Rate (%) of suppression of calcium deposition in blood vessel=(1−[(Amount of calcium per gram of dried blood vessel of the test compound-treated pathological group)−(Amount of calcium per gram of dried blood vessel of the normal group)]/[(Amount of calcium per gram of dried blood vessel of the reference pathological group)−(Amount of calcium per gram of dried blood vessel of the normal group)])×100

human PiT-2 = biological target: T1, human PiT-2 (Homo sapiens, UniProt Q08357); assay: Inhibitory effect on 33PO4 uptake into human PiT-2-expressing CHO cells; format: cell-based; settings: pH 6.5, read-out: IC50 against 33PO4 uptake into human PiT-2-expressing cells
T1 construct: expressed in transfected cells; host or cells: CHO cells
T1 sequence (Q08357 1-652): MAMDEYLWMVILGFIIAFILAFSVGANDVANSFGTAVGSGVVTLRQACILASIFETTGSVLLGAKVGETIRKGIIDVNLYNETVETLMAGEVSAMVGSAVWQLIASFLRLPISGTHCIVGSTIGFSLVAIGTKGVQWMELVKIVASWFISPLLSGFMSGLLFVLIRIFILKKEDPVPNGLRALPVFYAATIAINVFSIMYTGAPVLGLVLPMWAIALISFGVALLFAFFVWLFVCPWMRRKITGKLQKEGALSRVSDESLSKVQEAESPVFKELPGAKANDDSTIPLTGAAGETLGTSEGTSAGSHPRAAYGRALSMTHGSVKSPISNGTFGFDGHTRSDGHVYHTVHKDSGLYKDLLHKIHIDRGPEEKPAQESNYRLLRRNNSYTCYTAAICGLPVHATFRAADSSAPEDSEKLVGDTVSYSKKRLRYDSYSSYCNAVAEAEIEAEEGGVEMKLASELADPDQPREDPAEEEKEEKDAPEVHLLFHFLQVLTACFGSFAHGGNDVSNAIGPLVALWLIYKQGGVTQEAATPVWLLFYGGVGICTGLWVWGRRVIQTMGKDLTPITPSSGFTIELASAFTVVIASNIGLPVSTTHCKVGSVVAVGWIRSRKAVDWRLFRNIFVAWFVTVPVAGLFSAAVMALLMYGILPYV
In short: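 CHO cells transfected with human PiT-2 or empty vector, then exposed to ^33PO4 at room temperature after compound preincubation. Uptake counted by scintillation. Inhibition computed from PiT-2 minus vector-cell uptake, relative to the DMSO control.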

## COCCN(C)CCOc1ccc(CN2C(=O)C(C(=O)Nc3ccc(C(F)(F)F)cc3-c3cc(C(F)(F)F)ncn3)=C(O)C3(CCCC3)N2C)c(F)c1F [Example 14, 7-[[2,3-Difluoro-4-[2-[2-methoxyethyl(methyl)amino]ethoxy]phenyl]methyl]-10-hydroxy-6-methyl-8-oxo-N-[4-(trifluoromethyl)-2-[6-(trifluoromethyl)pyrimidin-4-yl]phenyl]-6,7-diazaspiro[4.5]dec-9-ene-9-carboxamide]
[1]
  Rate of inhibition (%) (suppression of a rise in serum creatinine concentration): 24%
[2]
  Rate of inhibition (%) (suppression of calcium deposition in blood vessel): 100% 100%
Human PiT-2
  IC50: 2.6 µM
